ChEMBL document CHEMBL1201862, “PubChem BioAssay data set” (2004)
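Growth conditions: 96-well plates. Treatment: test compound, 48 hours, 5 concentrations. Analysis: linear interpolation between bracketing concentrations; unreached endpoints set to highest concentration. GI50 is the concentration that inhibits growth by half.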 Activity calls are given as the source filed them. No stated cut-off is given here; in the data, active = GI50 up to about 1.1 µM and inactive = higher.

Key:
Assay in all cases: inhibition of tumour cell growth, NCI panel, 48 h
SK-MEL-2 = tested on: SK-MEL-2
SK-MEL-5 = tested on: SK-MEL-5
TK-10 = tested on: TK-10
MDA-N = tested on: MDA-N
K562 = tested on: K562
NCI-H460 = tested on: NCI-H460
IGROV-1 = tested on: IGROV-1
EKVX = tested on: EKVX
SNB-19 = tested on: SNB-19
UO-31 = tested on: UO-31
U-251 = tested on: U-251
T47D = tested on: T47D
SF-539 = tested on: SF-539
HT-29 = tested on: HT-29
NCI/ADR-RES = tested on: NCI/ADR-RES
OVCAR-8 = tested on: OVCAR-8
MCF7 = tested on: MCF7
CAKI-1 = tested on: CAKI-1
NCI-H23 = tested on: NCI-H23
LOX IMVI = tested on: LOX IMVI

Measured: GI50

CCCC(=O)Nc1cc(C(=O)N2C[C@@H]3C[C@]34C2=CC(=O)c2[nH]cc(C)c24)n(COC)c1
inactive: SK-MEL-2 2.38 µM | SK-MEL-5 1.54 µM | TK-10 10.7 µM | MDA-N 8.65 µM | K562 2.33 µM | NCI-H460 6.64 µM | IGROV-1 6.52 µM | EKVX 12.6 µM | SNB-19 12.4 µM | UO-31 8.97 µM | U-251 3.17 µM | T47D 2.78 µM | SF-539 7.06 µM | HT-29 8.55 µM | NCI/ADR-RES 13.9 µM | OVCAR-8 1.94 µM | MCF7 1.36 µM | CAKI-1 2.21 µM | NCI-H23 1.56 µM | LOX IMVI 2.62 µM
